# According to patent US4397676A, “N-Phosphonomethylglycine derivatives” (Geshuri Laboratories Ltd., priority 1982, dated 1983):
# Counter-ions that a name gives are not always drawn.
# How the values were obtained:
# [1] = background statement; cited from earlier work
# various plant species = details: background statement; cited from earlier work
# [2] = Solubility of NPMG-iminourea salts in water; format: physicochemical
# Experimental: SOLUBILITY OF NPMG-IMINOUREA SALTS
# NPMG Salt 20° C. (in grams)
smiles,measurement,setting,value
"O=C(O)CNCP(=O)(O)O [NPMG, N-phosphonomethylglycine]",solubility in water and conventional organic solvents (in words),[1],relatively insoluble in water and conventional organic solvents
same,herbicidal effect (in words),various plant species,very effective phytotoxicant or herbicide
"O=C(O)CNCP(=O)(O)O [I, NPMG MONO (GUANIDINE) SALT]",Weight dissolved in 100 ml water at 20° C.,[2],15.7 grams
"O=C(O)CNCP(=O)(O)O [V, NPMG MONO (TETRA METHYL GUANIDINE) SALT]",Weight dissolved in 100 ml water at 20° C.,"[2]; listed as 1,1,3,3 Tetra Methyl Guanidine",165 grams
"O=C(O)CNCP(=O)(O)O [II, NPMG MONO (AMINOGUANIDINE) SALT]",water solubility (in words),[2]; in words,highly water-soluble
same,content of active materials in solutions readily prepared,[2]; water as preferred diluent,≤ 60 % by weight
